Assay results from patent US9169241B2, “Quinolinyloxyphenylsulfonamides” (Max-Planck-Gesellschaft Zur Forderung der Wissenschaften …, priority 2009, dated 2015).

Tests used:
Assay in all cases: Cell vitality assay (ATP assay, CellTiter-Glo)
Type in all cases: cell-based
[1] = test system: U373; settings: Homo sapiens, U373 MG, Table IIc
Procedure, shortened: (§1)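 IC50s reflect 50% loss of ATP-dependent luminescence versus DMSO control after a 72 h treatment of 1000 cells per well across 0.195–12.5 μM compound.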

[2] = test system: Aspc-1; settings: Homo sapiens, ASPC1, Table IIb
Procedure, shortened: as §1

[3] = test system: HT29; settings: Homo sapiens, HT-29, Table IIc
Procedure, shortened: as §1

[4] = test system: DU145; settings: Homo sapiens, DU-145, Table IIb
Procedure, shortened: as §1

[5] = test system: Panc-1; settings: Homo sapiens, Table IIb
Procedure, shortened: as §1

[6] = test system: A549; settings: Homo sapiens, Table IIc
Procedure, shortened: as §1

[7] = test system: MDA-MB435s; settings: Homo sapiens, MDA-MB-435S, Table IIc
Procedure, shortened: as §1

[8] = test system: H460; settings: Homo sapiens, NCI-H460, Table IIc
Procedure, shortened: as §1

[9] = test system: 786-0; settings: Homo sapiens, Table IIb
Procedure, shortened: as §1

[10] = test system: MiaPaca-2; settings: Homo sapiens, MIA PaCa-2, Table IIb
Procedure, shortened: as §1

[11] = test system: PC3; settings: Homo sapiens, PC-3, Table IIb
Procedure, shortened: as §1

[12] = test system: MCF10A; settings: Homo sapiens, MCF-10A, Table IIb
Procedure, shortened: as §1

| SMILES | IC50 [1] | IC50 [2] | IC50 [3] | IC50 [4] | IC50 [5] | IC50 [6] | IC50 [7] | IC50 [8] | IC50 [9] | IC50 [10] | IC50 [11] | IC50 [12] |
| --- | --- | --- | --- | --- | --- | --- | --- | --- | --- | --- | --- | --- |
| COc1cc2c(Oc3ccc(NS(=O)(=O)c4cc(F)ccc4F)cc3F)ccnc2cc1OCCCN1CCCCC1 [Example 1, 2,5-Difluoro-N-{3-fluoro-4-[6-methoxy-7-(3-piperidin-1-yl-propoxy)-quinolin-4-yloxy]-phenyl}-benzenesulfonamide] | ≤ 12.5 µM | ≤ 12.5 µM | ≤ 12.5 µM | ≤ 12.5 µM | 12.5 to 50 µM | ≤ 12.5 µM | ≤ 12.5 µM | ≤ 12.5 µM | 12.5 to 50 µM | ≤ 12.5 µM | ≤ 12.5 µM |  |
| COc1cc2c(Oc3ccc(NS(=O)(=O)c4cc(F)ccc4F)cc3F)ccnc2cc1OCCCN1CCN(C)CC1 [Example 12, 2,5-Difluoro-N-(3-fluoro-4-{6-methoxy-7-[3-(4-methyl-piperazin-1-yl)-propoxy]-quinolin-4-yloxy}-phenyl)-benzenesulfonamide] | ≤ 12.5 µM | ≤ 12.5 µM | ≤ 12.5 µM | ≤ 12.5 µM | 12.5 to 50 µM | ≤ 12.5 µM | ≤ 12.5 µM | ≤ 12.5 µM | ≤ 12.5 µM | ≤ 12.5 µM | ≤ 12.5 µM |  |
| COc1cc2c(Oc3ccc(NS(=O)(=O)c4ccccc4C(F)(F)F)cc3F)ccnc2cc1OCCCN1CCN(C)CC1 [Example 24, N-(3-Fluoro-4-{6-methoxy-7-[3-(4-methyl-piperazin-1-yl)-propoxy]-quinolin-4-yloxy}-phenyl)-2-trifluoromethyl-benzenesulfonamide] | ≤ 12.5 µM | ≤ 12.5 µM | ≤ 12.5 µM | ≤ 12.5 µM | 12.5 to 50 µM | ≤ 12.5 µM | ≤ 12.5 µM | ≤ 12.5 µM | ≤ 12.5 µM | ≤ 12.5 µM | 12.5 to 50 µM | ≤ 12.5 µM |
| COC(=O)c1sccc1S(=O)(=O)Nc1ccc(Oc2ccnc3cc(OCCCN4CCCC(C)C4)c(OC)cc23)c(F)c1 (stereo not drawn) [Example 66, 3-(3-Fluoro-4-{6-methoxy-7-[3-(3-methyl-piperidin-1-yl)-propoxy]-quinolin-4-yloxy}-phenylsulfamoyl)-thiophene-2-carboxylic acid methyl ester] | ≤ 12.5 µM | ≤ 12.5 µM | ≤ 12.5 µM | ≤ 12.5 µM | ≤ 12.5 µM | ≤ 12.5 µM | ≤ 12.5 µM | ≤ 12.5 µM | ≤ 12.5 µM | ≤ 12.5 µM | ≤ 12.5 µM |  |
